Test results from patent publication US7842726B2, “Carnitine derivative, salt thereof, external skin preparation and cosmetic material” (Showa Denko K.K., priority 2005, dated 2010).
Structures can show the parent of a compound that is named as a salt.

Key:
Human preadipocytes = assay: Fat breakdown stimulation: triglyceride accumulation in adipocytes (oil red staining, colorimetry); type: cell-based; conditions: for Triglyceride accumulation: relative to untreated adipocytes (100), 50 μM test substance, 5 days incubation; for effect of stimulating fat metabolism: conclusion from Table 2, 50 μM, 5 days
Procedure: Human preadipocytes (available from TOYOBO Co., LTD.) were seeded on a 96-well microplate and were incubated at 37° C. and 5% CO2 using human preadipocyte growth medium TAGM (available from TOYOBO Co., LTD.) while renewing the medium every two days. The growth medium was changed to human adipocyte differentiation medium TADM (available from TOYOBO Co., LTD.), and incubation was carried out for 5 days. Subsequently, the medium was changed to an evaluation medium as shown in Table 1 below without or with 50 μM of any of the test substances described below. The incubation was carried out for 5 days.
The adipocytes were washed with Dulbecco's PBS (−) three times and were formalin fixed. The adipocytes were stained with an oil red/water-isopropanol (1/1) solution, and were extracted with isopropanol. Triglyceride accumulated in the adipocytes was determined by a colorimetry method.

[1] = Stability of carnitine derivatives in aqueous solution at 80° C. (RPHPLC); type: physicochemical; conditions: 0.3% by mass in PBS(-) with 5% 1,2-hexanediol, pH 7, 80° C.; changes with time; FIG. 2
Procedure: The test substances were each dissolved in Dulbecco's PBS (−) containing 5% by mass of 1,2-hexanediol, followed by adding 1N NaOH to adjust the pH to 7. Consequently, 0.3% by mass solutions of the test substances were prepared. The solutions were tightly encapsulated in glass vials and were temperature controlled at 80° C. in a water bath.
After the lapse of a predetermined time, the solutions were collected and were analyzed by RPHPLC (column: Shodex C8-5B, eluting solution: 70% acetonitrile, flow rate: 1.0 ml/min). The remaining carnitine derivatives originating from the test substances were determined from the UV absorption intensity at 210 nm.

[2] = Percutaneous absorption through three-dimensional human skin model, two-chamber test; type: in vitro ADME; conditions: 0.3% by mass solution, pH 7, 35° C., after 24 hours; compared with L-carnitine palmitate; FIG. 1
Procedure: The test substances were each dissolved in Dulbecco's PBS (−) containing 5% by mass of 1,2-hexanediol, followed by adding 1N NaOH to adjust the pH to 7. Consequently, 0.3% by mass solutions of the test substances were prepared. Two chambers were separated through a three-dimensional model of human skin tissue (TESTSKIN™ LSD-d, available from TOYOBO CO., LTD.). 3 ml of each test substance solution was placed into a chamber on the epidermis side, and 3 ml of Dulbecco's PBS (−) was placed into a chamber on the dermis side. They were stirred with magnetic stirrers at 35° C. for 24 hours.
After the lapse of 24 hours, 1 ml of the buffer solution in the dermis-side chamber was collected, and 0.5 ml of the solution collected was analyzed to determine free carnitine. The remaining portion of the solution collected was adjusted to pH 11 with 1N NaOH, was encapsulated in a 1.5 ml screw vial, and was allowed to stand at 80° C. for 6 hours, followed by cooling. The pH of the solution was adjusted to 7 with 1N HCl, whereby all acylcarnitine derivatives were decomposed to free carnitine. These solutions were each combined with 0.02 ml of 1N hydrochloric acid, 0.1 ml of 1.6% by mass 1-aminoanthracene-in acetone solution and 0.1 ml of 16% by mass aqueous EDC (1-ethyl-3-(3-dimethylaminopropyl)carbodiimide hydrochloride) solution, followed by sufficient stirring. The solutions were allowed to stand still at room temperature for 20 minutes and were washed with 3 ml of diethylether. The aqueous phases were filtered and were analyzed by reversed-phase high performance liquid chromatography (RPHPLC) (column: Phenomenex Synergi-RP, eluting solution: 45% acetonitrile, flow rate: 1.0 ml/min) to determine peak intensities assigned to 1-aminoanthracene-modified carnitine (excitation wavelength: 248 nm, fluorescent wavelength: 418 nm). The concentrations of carnitine derivatives and free carnitine originating from the test substances in the solution in the dermis-side chamber were calculated and determined from the aforesaid peak intensities. […]

CCCCCCCCCCCCCCCC(=O)O[C@H](CC(=O)[O-])C[N+](C)(C)C.Cl [L-carnitine palmitate hydrochloride, reference compound]
Triglyceride accumulation (Human preadipocytes): 87

C[N+](C)(C)C[C@H](O)CC(=O)[O-].Cl [L-carnitine hydrochloride, reference compound]
Triglyceride accumulation (Human preadipocytes): 98

CCCCCCCCCCCCCCC(C)C(=O)OC(CC(=O)[O-])C[N+](C)(C)C [L-carnitine 2-methylpalmitate hydrochloride]
residual ratio of carnitine derivatives in aqueous solution [1]: higher residual ratio and were exceptionally more stable in aqueous solutions than the acylcarnitines having a straight-chain acyl group
L-carnitine concentration (carnitine derivatives and free carnitine) passed to the dermis-side chamber [2]: comparable or higher L-carnitine concentrations than that obtained with L-carnitine palmitate
effect of stimulating fat metabolism (Human preadipocytes): good effects of stimulating fat metabolism
Triglyceride accumulation (Human preadipocytes): 89

CCCCCCCCC(CCCCCC)C(=O)OC(CC(=O)[O-])C[N+](C)(C)C [L-carnitine 2-hexyldecanoate hydrochloride]
residual ratio of carnitine derivatives in aqueous solution [1]: higher residual ratio and were exceptionally more stable in aqueous solutions than the acylcarnitines having a straight-chain acyl group
L-carnitine concentration (carnitine derivatives and free carnitine) passed to the dermis-side chamber [2]: comparable or higher L-carnitine concentrations than that obtained with L-carnitine palmitate
effect of stimulating fat metabolism (Human preadipocytes): good effects of stimulating fat metabolism
Triglyceride accumulation (Human preadipocytes): 89

CCCCCCC(CCCC)C(=O)OC(CC(=O)[O-])C[N+](C)(C)C [L-carnitine 2-butyloctanoate hydrochloride]
residual ratio of carnitine derivatives in aqueous solution [1]: higher residual ratio and were exceptionally more stable in aqueous solutions than the acylcarnitines having a straight-chain acyl group
L-carnitine concentration (carnitine derivatives and free carnitine) passed to the dermis-side chamber [2]: comparable or higher L-carnitine concentrations than that obtained with L-carnitine palmitate
effect of stimulating fat metabolism (Human preadipocytes): good effects of stimulating fat metabolism
Triglyceride accumulation (Human preadipocytes): 90
